{"source": "patent US20160146815A1", "about": "“METHOD FOR SCREEING CANCER METASTASIS INHIBITOR USING CULTURE OF CELLS OR SPHEROIDICALLY AGGREGATED CELLS IN WHICH LYSYL-TRNA SYNTHETASE IS REGULATED TO BE EXPRESSED OR UNEXPRESSED” (Medicinal Bioconvergence Research Center, priority 2013, published 2016)", "key": {"[1]": {"system": "colorectal cancer cell line SW620", "assay": "Dissemination of cells from SW620 spheroids in three-dimensional collagen gel (time-lapse imaging)", "format": "cell-based, human", "conditions": "SW620 parental cells treated with U0126 or YH16899", "text": "Various colorectal cancer cell lines (SW620, HCT15, SNU977, KM12SM, and SNU-05) were stably transfected with shKRS to suppress KRS expression (clones #2 and #5). Then, the dissemination was observed under time-lapse microscope (FIG. 17A) or the signaling activity was investigated after the treatment of YH16899 (FIG. 17B).\nParticularly, the colorectal cancer cell lines SW620, HCT15, SNU977, KM12SM, and SNU-05 (Korean Cell Line Bank, Cancer Research Institute, Seoul National University) were distributed in a three-dimensional collagen gel environment as spheroids, followed by time-lapse imaging 6 hours later or followed by normal culture in a two-dimensional environment supplemented with 10% serum for 2 days. Then, lysis buffer (50 mM Tris-HCl, pH7.4, 1% NP-40, 0.25% sodium deoxycholate, 150 mM NaCl, 1 mM EDTA) was added thereto, followed by lysis to obtain cell lysate. The protein in the obtained cell lysate was quantified, followed by Western blotting with the labeled factors."}, "[2]": {"system": "HCT116 spheroidically aggregated cells", "assay": "Dissemination of cells from spheroidically aggregated cells in three-dimensional collagen gel (time-lapse microscope)", "format": "cell-based, human", "conditions": "HCT116 parental cells, U0126 50 μM, three-dimensional collagen gel, real-time live imaging", "protocol": "Particularly, 2.5 mg/Ml of collagen containing cells was loaded in the magnetic 4-well chamber (Live Cell Instrument, Korea) for the culture system of time-lapse microscope, and the collagen was hardened in a 37° C. incubator for 30 minutes. When the collagen was fully solidified, PRMI-1640 supplemented with 10% FBS was added thereto. The magnetic chamber containing three-dimensional collagen gel and its corresponding adaptor were placed on the time-lapse microscope, followed by setting the multi-position. […] 5% CO2 incubator. Culture medium was added thereto every 6 hours in order for the collagen not to be dried. At this time, it is important to maintain the focus not to be changed. […]\nAs confirmed in the result of Example 14, when the HCT116 parental cells were treated with TGFβ1, the dissemination of cells from the spheroidically aggregated cells and migration thereof were observed. When the KRS knock-out cell line was treated with TGFβ1, the dissemination of cells was not observed. […] When the extracellular signal-regulated kinase (ERKs) inhibitor U0126 was treated to the HCT116 parental cells, it was presumed to be negative effect on the dissemination and migration of cells. To verify above, 50 μM of U0126, the ERKs inhibitor, was treated to the cell line, followed by observation of cell dissemination and migration by real-time live imaging of the spheroidically aggregated cells."}, "HCT116 cells": {"system": "HCT116 cells", "assay": "CK14 immunostaining of spheroids in three-dimensional collagen gel", "format": "cell-based, human", "conditions": "U0126 (50 mM) or YH16899 (50 mM), a day, KRS expressing cells", "text": "In a three-dimensional collagen gel environment, the dissemination of cells was KRS expression-dependent, and the expressions of epithelial markers involved in cell-cell contact were reduced in the KRS knock-out cell lines. However in the KRS knock-out cell lines, the cell scattering was not observed in a two-dimensional culture environment and the dissemination was not observed in a three-dimensional collagen gel environment. So, in order to confirm whether or not the dissemination of cells from the spheroidically aggregated cells of KRS knock-out cell line in a three-dimensional collagen gel environment was attributed to the expression of epithelial marker, the cell line was cultured in a three-dimensional collagen gel environment for 24 hours. When the dissemination was observed, CK14 staining was performed and the cells were observed under confocal microscope.\nParticularly, the collagen gel containing cells were distributed in PDMS, which was treated with nothing for a day (FIG. 9A) or treated with U0126 (50 mM) or YH16899 (50 mM) (FIG. 9B). The collagen gel containing the cultured cells was fixed in 4% paraformaldehyde for 30 minutes, which was then treated with 30 mM glycine for 30 minutes. Then, permeabilization was induced by using 0.5% triton X-100 for 30 minutes, followed by blocking with 3% BSA solution for 2 hours. […]"}, "HCT116 parental cells [3]": {"system": "HCT116 parental cells", "assay": "Western blotting of signaling factors in spheroidically aggregated cells in three-dimensional collagen gel", "format": "cell-based, human", "conditions": "for phosphorylation of FAK / expression of E-cadherin / expression of paxillin / expression of β-catenin / phosphorylation of ERKs / phosphorylation of paxillin: 50 and 100 μM, three-dimensional collagen gel, Western blotting; for phosphorylation of FAK: a day (24 hours); for expression of E-cadherin / expression of paxillin / expression of β-catenin / phosphorylation of ERKs / phosphorylation of paxillin: a day", "protocol": "Whole cell extract was collected, followed by Western blotting by the same manner as described in Example <7-2>. At this time, the primary antibodies of pY397FAK, FAK, p-ERKs, ERKs, pY118paxillin, paxillin, E-cadherin, β-catenin, KRS, α-tubulin, pAkt1/2/3, and caspase 3 were used.\nSDS, Na3O4V, and protease inhibitor cocktails (GenDepot) were added to lysis buffer, followed by reaction at 4° C. for at least 1 hour. Centrifugation was performed at 4° C., at 13000 rpm, for 30 minutes. The supernatant was transferred into a new microcentrifuge tube. 4×SDS-PAGE sample buffer was added thereto, followed by boiling at 100° C. for 5 minutes. The extract was quantified by Western blotting using α-tubulin antibody (Sigma). Other protein expressions and phosphorylations were also measured by Western blotting."}, "HCT116 spheroid cells": {"system": "HCT116 spheroid cells", "assay": "Immunostaining of p-ERKs and paxillin in spheroids in three-dimensional collagen gel (confocal microscope)", "format": "cell-based, human", "conditions": "U0126 (50 mM) or YH16899 (50 mM), a day", "protocol": "Particularly, collagen type I was distributed in PDMS, which was treated with nothing for a day (FIG. 6A and FIG. 6B) or treated with U0126 (50 mM) or YH16899 (50 mM) (FIG. 6C and FIG. 6D). Collagen gel containing the cultured cells was fixed in 4% formaldehyde for 30 minutes, followed by the treatment with 30 mM glycine for 30 minutes. Permeabilization was induced by using 0.5% triton X-100 for 30 minutes, followed by blocking with 3% BSA solution for 2 hours. The unlabeled p-ERKs (cell signaling) and paxillin (BD bioscience) antibodies were treated thereto at 4° C. at least 16˜18 hours, followed by the treatment with the secondary antibody for at least 4 hours at room temperature. At last, DAPI (4′,6-diamidino-2-phenylindole) solution was treated thereto in order to stain nuclei. The stained cells were observed under confocal microscope."}, "HCT116 parental cells [4]": {"system": "HCT116 parental cells", "conditions": "U0126 50 or 100 μM, 24 hours; vs control not treated", "protocol": "Particularly, the HCT116 parental cells cultured in a three-dimensional collagen gel environment were either not treated with U0126 or treated with U0126, the ERKs inhibitor, at the concentration of 50 or 100 μM, followed by culture for 24 hours."}}, "note": "“Also recorded” adds a separate entry of the source.", "data": [{"smiles": "N#CC(=C(/N)Sc1ccccc1N)/C(C#N)=C(\\N)Sc1ccccc1N", "note": "[U0126]", "values": [{"measurement": "dissemination of cells from the three-dimensional spheroid cells", "setting": "[1]", "value": "not observed"}, {"measurement": "dissemination and migration of cells from the spheroid", "setting": "[2]", "value": "suppression"}, {"measurement": "dissemination and migration of cells from the spheroid", "setting": "[2]; listed as ERKs inhibitor", "value": "did not cause cell migration and dissemination; also recorded: not induced"}, {"measurement": "dissemination and migration of cells from the spheroid", "setting": "[2]; listed as ERKs inhibitors", "value": "inhibited"}, {"measurement": "dissemination and migration of cells from the spheroid", "setting": "[2]; listed as U1026", "value": "inhibited"}, {"measurement": "CK14 expression", "setting": "HCT116 cells", "value": "significantly suppressed"}, {"measurement": "CK14 expression", "setting": "HCT116 cells; listed as U1026", "value": "low and very low"}, {"measurement": "phosphorylation of FAK", "setting": "HCT116 parental cells [3]", "value": "suppressed"}, {"measurement": "phosphorylation of FAK", "setting": "HCT116 parental cells [3]; listed as ERKs inhibitor", "value": "significantly reduced"}, {"measurement": "expression of E-cadherin", "setting": "HCT116 parental cells [3]", "value": "reduced"}, {"measurement": "expression of paxillin", "setting": "HCT116 parental cells [3]", "value": "reduced"}, {"measurement": "expression of β-catenin", "setting": "HCT116 parental cells [3]", "value": "reduced"}, {"measurement": "phosphorylation of ERKs", "setting": "HCT116 parental cells [3]", "value": "suppressed"}, {"measurement": "phosphorylation of paxillin", "setting": "HCT116 parental cells [3]", "value": "reduced; also recorded: suppressed"}, {"measurement": "expression of E-cadherin", "setting": "HCT116 parental cells [3]; listed as ERKs inhibitor", "value": "significantly reduced"}, {"measurement": "expression of paxillin", "setting": "HCT116 parental cells [3]; listed as ERKs inhibitor", "value": "significantly reduced"}, {"measurement": "phosphorylation of paxillin", "setting": "HCT116 parental cells [3]; listed as ERKs inhibitor", "value": "significantly reduced"}, {"measurement": "expression of E-cadherin", "setting": "HCT116 parental cells [3]; listed as U1026", "value": "decreased"}, {"measurement": "expression of paxillin", "setting": "HCT116 parental cells [3]; listed as U1026", "value": "inhibited"}, {"measurement": "expression of β-catenin", "setting": "HCT116 parental cells [3]; listed as U1026", "value": "decreased"}, {"measurement": "phosphorylation of ERKs", "setting": "HCT116 parental cells [3]; listed as U1026", "value": "inhibited"}, {"measurement": "phosphorylation of paxillin", "setting": "HCT116 parental cells [3]; listed as U1026", "value": "inhibited"}, {"measurement": "expression of the epithelial marker", "setting": "HCT116 parental cells [3]; HCT116 cell line in three-dimensional collagen gel, FIG. 18 legend", "value": "increased"}, {"measurement": "ERKs phosphorylation level (p-ERKs immunostaining)", "setting": "HCT116 spheroid cells", "value": "inhibited significantly; also recorded: very low"}, {"measurement": "paxillin immunostaining level (paxillin expression)", "setting": "HCT116 spheroid cells", "value": "inhibited significantly; also recorded: significantly reduced"}, {"measurement": "expression level of E-cadherin mRNA", "setting": "HCT116 parental cells [4]", "value": "significantly reduced"}]}]}
